In ChEMBL document CHEMBL1143140, “RCAI-8, 9, 18, 19, and 49-52, conformationally restricted analogues of KRN7000 with an azetidine or a pyrrolidine ring: Their synthesis and bioactivity for mouse natural killer T cells to produce cytokines” (Bioorg Med Chem, 2008) one finds Activity data, which are given here for 8 compounds.

Type in all cases: functional, cell-based
Assay [1] relates to Splenocyte. Briefly: Induction of IFN-gamma production in C57BL/6 mouse splenocytes after 48 hrs by cytometric bead array method.
In assay [2] the test system is Splenocyte. Briefly: Induction of IL13 production in C57BL/6 mouse splenocytes after 48 hrs by cytometric bead array method.
The subject of assay [3] is Splenocyte. Put plainly: Induction of IL2 production in C57BL/6 mouse splenocytes after 48 hrs by cytometric bead array method.
In assay [4] the test system is Splenocyte. Put plainly: Induction of IL4 production in C57BL/6 mouse splenocytes after 48 hrs by cytometric bead array method.
Assay [5] deals with Splenocyte. Put plainly: Induction of IL10 production in C57BL/6 mouse splenocytes after 48 hrs by cytometric bead array method.

The source made the active and inactive calls. No cut-off for these calls is given here.

As to `CCCCCCCCCCCCCCCCCCCCCCCCCC(=O)N1[C@@H](CCCCCCCCCCCCC)C[C@@H](O)[C@@H]1CO[C@@H]1O[C@H](CO)[C@H](O)[C@H](O)[C@H]1O`, the result in the assay with Splenocyte [1], with Splenocyte [2], in the assay on Splenocyte [3], with Splenocyte [4] and in the assay on Splenocyte [5] was inactive.

`CCCCCCCCCCCCCCCCCCCCCCCCCC(=O)N1[C@@H](CCCCCCCCCCCCC)C[C@@H](O)[C@@H]1CO[C@H]1O[C@H](CO)[C@H](O)[C@H](O)[C@H]1O`: the result in the assay on Splenocyte [1], with Splenocyte [2], with Splenocyte [3], in the assay on Splenocyte [4] and in the assay on Splenocyte [5] was inactive.

`CCCCCCCCCCCCCCCCCCCCCCCCCC(=O)N1[C@@H](CCCCCCCCCCCCCC)[C@@H](O)[C@@H]1CO[C@@H]1O[C@H](CO)[C@H](O)[C@H](O)[C@H]1O`: the result in the assay with Splenocyte [1], in the assay with Splenocyte [2], in the assay with Splenocyte [3], in the assay with Splenocyte [4] and in the assay on Splenocyte [5] was inactive.

Consider `CCCCCCCCCCCCCCCCCCCCCCCCCC(=O)N1[C@H](CCCCCCCCCCCCC)C[C@@H](O)[C@@H]1CO[C@H]1O[C@H](CO)[C@H](O)[C@H](O)[C@H]1O`, for which the result in the assay on Splenocyte [1], with Splenocyte [2], with Splenocyte [3], with Splenocyte [4] and in the assay with Splenocyte [5] was Active.

Regarding `CCCCCCCCCCCCCCCCCCCCCCCCCC(=O)N1[C@H](CCCCCCCCCCCCC)C[C@@H](O)[C@@H]1CO[C@@H]1O[C@H](CO)[C@H](O)[C@H](O)[C@H]1O`, the outcome in the assay on Splenocyte [1], in the assay on Splenocyte [2], with Splenocyte [3], in the assay with Splenocyte [4] and in the assay with Splenocyte [5] was inactive.

As to `CCCCCCCCCCCCCCCCCCCCCCCCCC(=O)N1[C@H](CCCCCCCCCCCCCC)[C@@H](O)[C@@H]1CO[C@@H]1O[C@H](CO)[C@H](O)[C@H](O)[C@H]1O`, the outcome with Splenocyte [1], in the assay on Splenocyte [2], in the assay with Splenocyte [3], in the assay on Splenocyte [4] and in the assay on Splenocyte [5] was inactive.

Regarding `CCCCCCCCCCCCCCCCCCCCCCCCCC(=O)N1[C@H](CCCCCCCCCCCCCC)[C@@H](O)[C@@H]1CO[C@H]1O[C@H](CO)[C@H](O)[C@H](O)[C@H]1O`, the result with Splenocyte [1], in the assay with Splenocyte [2], in the assay on Splenocyte [3], in the assay on Splenocyte [4] and in the assay on Splenocyte [5] was inactive.

In the case of `CCCCCCCCCCCCCCCCCCCCCCCCCC(=O)N1[C@@H](CCCCCCCCCCCCCC)[C@@H](O)[C@@H]1CO[C@H]1O[C@H](CO)[C@H](O)[C@H](O)[C@H]1O`, the result with Splenocyte [1], in the assay on Splenocyte [2], in the assay on Splenocyte [3], with Splenocyte [4] and with Splenocyte [5] was Active.
